The test system of test [1] is AT2 receptor. In words: neurite outgrowth assay in NG108-15 cells (functional activity at the AT2 receptor). In kind it is cell-based. As to conditions: PD 123319 alone (10 μM), 3 days. The method, then: The functional activity of the analogues of the present invention was evaluated at the AT2 receptor, applying a neurite outgrowth assay in NG108-15 [108CC15] (ATCC® HB12317™) cells. […] The signaling pathways involve a sustained increase in Rap1/BRaf/p42/p44mapk activity and activation of the nitric oxide/guanylyl cyclase/cGMP pathway. NG108-15 cells were treated in absence or presence of Ang II and PD 123319, an AT2 receptor antagonist. The cells were plated at the initial density of 3.6×10^4 cells/petri dish (35 mm) and were cultured for 3 days in the absence (−) or presence (+) of 100 nM Ang II, 1 μM analogue 3, analogue 2 and analogue 1 alone or in combination with 10 μM antagonist PD 123,319 or 100 nM AngII. After 3 days of treatment, the cells were examined under a phase contrast microscope and micrographs were taken. Cells with at least one neurite longer than a cell body were counted as a positive neurite outgrowth. Antagonistic effect was established through co-incubation with Ang II resulting in reduced Ang II-induced neurite outgrowth, verifying blockage of the AT2 receptor. […] The number of cells with neurites was expressed as the percentage of the total number in the micrographs (at least 260 cells according to the experiment). […]
NG108-15 [108CC15] […] Cells with at least one neurite longer than a cell body were counted as positive for neurite outgrowth. […]

Test [2] deals with AT2 receptor. As to conditions: 3-day treatment, undifferentiated NG108-15 cells; reported by Blankley et al; cited from earlier work.

For the molecule `Cc1cc(Cn2cnc3c2C[C@@H](C(=O)O)N(C(=O)C(c2ccccc2)c2ccccc2)C3)ccc1N(C)C` [PD 123319], the “cell morphology compared to untreated cells” value in the test on AT2 receptor [1] was “did not alter the morphology”. Turning to “Asp-Arg-Val-Tyr-Ile-His-Pro-Phe (DRVYIHPF) [Ang II, octapeptide, endogenous substrate for AT1 and AT2 receptors]”, the “neurite outgrowth in NG108-15 cells (earlier reported)” value with AT2 receptor [2] is “induces neurite outgrowth”. With CGP-42112A, the “neurite outgrowth in NG108-15 cells (earlier reported)” value with AT2 receptor [2] is “induces neurite outgrowth”.

(Values after patent US10385096B2, “Pro-Amb reverse turn restricted bioactive peptide analogues” (Council of Scientific & Industrial Research, priority 2016, dated 2019).)
